Data on six compounds can be found in publication PMC6785188 (ACS chemical neuroscience, 2019).

Series [1] concerns the target D3 (Homo sapiens, UniProt P35462). Kind of series: Radioligand binding affinity assay, D3.
The target in series [2] is 5-HT7A (Homo sapiens, UniProt P34969). Nature of the series: Radioligand binding affinity assay, 5-HT7A.
Series [3] has as its target T1, M2 (Homo sapiens, UniProt P08172).
T1 sequence (P08172 1-466): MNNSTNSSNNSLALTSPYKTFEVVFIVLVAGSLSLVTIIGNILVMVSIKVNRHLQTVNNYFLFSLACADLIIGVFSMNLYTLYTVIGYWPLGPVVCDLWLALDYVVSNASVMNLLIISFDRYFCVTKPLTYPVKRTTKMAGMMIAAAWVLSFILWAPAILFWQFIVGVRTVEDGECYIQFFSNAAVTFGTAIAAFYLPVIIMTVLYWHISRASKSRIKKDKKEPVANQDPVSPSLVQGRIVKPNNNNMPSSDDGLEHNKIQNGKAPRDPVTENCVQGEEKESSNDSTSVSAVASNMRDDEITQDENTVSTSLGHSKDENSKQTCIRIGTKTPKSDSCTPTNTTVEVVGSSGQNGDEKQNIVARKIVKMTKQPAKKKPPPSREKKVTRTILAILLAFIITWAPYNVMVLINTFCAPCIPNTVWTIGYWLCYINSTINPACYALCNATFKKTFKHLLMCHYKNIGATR
Nature of the series: Radioligand binding affinity assay, M2.

Series [4] concerns 6-OHDA-lesioned mice. Nature of the series: Motor activity study in 6-OHDA-lesioned mice. Format: in vivo. As to conditions: 5 mg/kg i.p., 90 min.
A short description of series [5]: Mouse pharmacokinetic study. In kind it is in vivo. The conditions noted are these: mice, 50 mg/kg i.p.
Series [6] deals with H1 (Homo sapiens, UniProt P35367). Kind of series: Radioligand binding affinity assay, H1.
Sequence of H1 (P35367 whole entry): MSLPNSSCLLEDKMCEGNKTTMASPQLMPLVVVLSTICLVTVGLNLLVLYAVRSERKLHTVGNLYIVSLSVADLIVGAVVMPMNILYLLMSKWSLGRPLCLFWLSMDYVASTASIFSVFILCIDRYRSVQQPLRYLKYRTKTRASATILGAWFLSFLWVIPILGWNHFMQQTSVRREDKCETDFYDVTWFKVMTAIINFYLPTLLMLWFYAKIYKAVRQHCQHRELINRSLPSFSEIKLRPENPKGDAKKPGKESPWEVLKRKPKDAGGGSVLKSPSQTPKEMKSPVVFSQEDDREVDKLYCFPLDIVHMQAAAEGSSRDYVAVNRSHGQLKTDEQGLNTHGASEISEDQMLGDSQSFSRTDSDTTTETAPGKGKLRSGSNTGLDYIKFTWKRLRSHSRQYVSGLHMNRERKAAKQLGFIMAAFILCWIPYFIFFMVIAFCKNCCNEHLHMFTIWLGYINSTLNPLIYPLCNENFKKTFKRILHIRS
The target of series [7] is T2, Alpha2A (Homo sapiens, UniProt P08913).
T2 sequence (P08913 1-465): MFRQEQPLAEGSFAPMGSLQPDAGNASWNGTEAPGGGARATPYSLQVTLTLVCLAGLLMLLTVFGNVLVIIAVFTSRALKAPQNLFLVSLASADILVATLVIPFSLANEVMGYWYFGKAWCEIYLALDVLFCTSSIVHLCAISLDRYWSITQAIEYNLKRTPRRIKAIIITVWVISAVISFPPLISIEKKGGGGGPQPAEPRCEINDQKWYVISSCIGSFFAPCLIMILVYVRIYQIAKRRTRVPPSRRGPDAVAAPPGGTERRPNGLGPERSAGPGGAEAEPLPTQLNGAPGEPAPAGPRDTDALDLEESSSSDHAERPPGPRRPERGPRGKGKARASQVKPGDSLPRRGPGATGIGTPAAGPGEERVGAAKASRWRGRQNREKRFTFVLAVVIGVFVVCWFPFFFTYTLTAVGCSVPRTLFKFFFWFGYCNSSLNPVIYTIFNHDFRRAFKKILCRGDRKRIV
Kind of series: Radioligand binding affinity assay, Alpha2A.

Series [8] concerns D1R. The conditions noted are these: Tango assay, ref 73 (Wang et al.), cited from earlier work.
Series [9] deals with T3, Alpha1A (Homo sapiens, UniProt P35348).
T3 sequence (P35348 1-466): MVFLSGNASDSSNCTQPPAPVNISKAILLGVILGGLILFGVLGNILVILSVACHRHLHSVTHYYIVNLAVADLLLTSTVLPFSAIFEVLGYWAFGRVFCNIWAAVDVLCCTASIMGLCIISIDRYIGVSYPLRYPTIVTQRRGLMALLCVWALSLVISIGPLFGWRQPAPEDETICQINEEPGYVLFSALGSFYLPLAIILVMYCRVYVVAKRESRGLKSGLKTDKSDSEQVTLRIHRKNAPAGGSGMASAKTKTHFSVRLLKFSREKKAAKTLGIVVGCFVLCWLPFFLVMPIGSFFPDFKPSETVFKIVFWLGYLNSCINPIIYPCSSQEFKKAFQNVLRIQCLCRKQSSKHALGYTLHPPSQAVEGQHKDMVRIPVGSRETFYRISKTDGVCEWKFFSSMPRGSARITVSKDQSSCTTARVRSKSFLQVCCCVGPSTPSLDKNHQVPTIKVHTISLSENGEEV
Kind of series: Radioligand binding affinity assay, Alpha1A.

Series [10] concerns the target D2 (Homo sapiens, UniProt P14416). Kind of series: Radioligand binding affinity assay, D2.
Series [11] concerns the target 5-HT2B (Homo sapiens, UniProt P41595). Nature of the series: Radioligand binding affinity assay, 5-HT2B.
Series [12] concerns the target KOR (Homo sapiens, UniProt P41145). Nature of the series: Radioligand binding affinity assay, KOR.
The target in series [13] is T4, 5-HT1A (Homo sapiens, UniProt P08908).
T4 sequence (P08908 1-422): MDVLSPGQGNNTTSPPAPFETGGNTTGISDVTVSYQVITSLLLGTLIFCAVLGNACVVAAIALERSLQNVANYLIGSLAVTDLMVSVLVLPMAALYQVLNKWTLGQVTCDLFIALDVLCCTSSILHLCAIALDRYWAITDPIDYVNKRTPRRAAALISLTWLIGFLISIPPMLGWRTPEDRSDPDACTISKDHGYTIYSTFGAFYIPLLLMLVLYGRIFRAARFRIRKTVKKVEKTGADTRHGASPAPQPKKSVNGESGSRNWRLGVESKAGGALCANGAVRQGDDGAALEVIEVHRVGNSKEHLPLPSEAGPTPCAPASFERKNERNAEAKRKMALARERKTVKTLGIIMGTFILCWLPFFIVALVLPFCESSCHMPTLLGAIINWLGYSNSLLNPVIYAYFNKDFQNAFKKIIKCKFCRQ
Nature of the series: Radioligand binding affinity assay, 5-HT1A.

Series [14] has as its system D1R. Kind of series: Bias calculation. The conditions noted are these: relative to dopamine; ΔΔlog(τ/KA), GS-cAMP vs β-arrestin2. Format: cell-based, human.
For series [15], the target named is M3 (Homo sapiens, UniProt P20309). Nature of the series: Radioligand binding affinity assay, M3.
Sequence of M3 (P20309 whole entry): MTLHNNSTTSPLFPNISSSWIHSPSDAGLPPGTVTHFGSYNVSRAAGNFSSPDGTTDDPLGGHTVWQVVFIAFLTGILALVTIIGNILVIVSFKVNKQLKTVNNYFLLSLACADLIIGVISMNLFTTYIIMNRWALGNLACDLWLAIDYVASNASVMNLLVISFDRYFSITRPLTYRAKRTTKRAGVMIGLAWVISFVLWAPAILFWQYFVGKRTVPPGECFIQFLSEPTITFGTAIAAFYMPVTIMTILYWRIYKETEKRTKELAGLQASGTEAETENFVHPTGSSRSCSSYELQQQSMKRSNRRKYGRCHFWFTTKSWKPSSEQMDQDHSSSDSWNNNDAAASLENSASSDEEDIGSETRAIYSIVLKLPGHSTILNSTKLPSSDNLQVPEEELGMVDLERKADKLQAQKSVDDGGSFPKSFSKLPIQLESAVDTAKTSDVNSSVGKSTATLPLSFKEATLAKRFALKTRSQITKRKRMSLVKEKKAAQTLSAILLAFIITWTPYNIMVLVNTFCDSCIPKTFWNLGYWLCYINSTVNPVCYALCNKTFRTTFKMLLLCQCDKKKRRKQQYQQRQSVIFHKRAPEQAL

pEC50, pKi: −log10 of the molar value.

Sequence of 5-HT7A (P34969 1-445 isoform P34969-2): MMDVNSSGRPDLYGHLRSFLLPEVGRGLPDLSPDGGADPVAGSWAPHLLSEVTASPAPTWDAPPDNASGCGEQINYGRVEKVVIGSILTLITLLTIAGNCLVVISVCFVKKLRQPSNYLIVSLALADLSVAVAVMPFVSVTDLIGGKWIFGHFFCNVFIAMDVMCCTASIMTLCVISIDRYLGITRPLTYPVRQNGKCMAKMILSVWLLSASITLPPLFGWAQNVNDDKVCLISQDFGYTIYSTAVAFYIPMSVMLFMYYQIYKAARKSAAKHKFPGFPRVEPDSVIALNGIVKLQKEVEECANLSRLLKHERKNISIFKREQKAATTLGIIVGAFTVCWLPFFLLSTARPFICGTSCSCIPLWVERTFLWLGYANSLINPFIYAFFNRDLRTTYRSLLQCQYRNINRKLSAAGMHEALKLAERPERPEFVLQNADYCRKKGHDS
Sequence of D3 (P35462 whole entry): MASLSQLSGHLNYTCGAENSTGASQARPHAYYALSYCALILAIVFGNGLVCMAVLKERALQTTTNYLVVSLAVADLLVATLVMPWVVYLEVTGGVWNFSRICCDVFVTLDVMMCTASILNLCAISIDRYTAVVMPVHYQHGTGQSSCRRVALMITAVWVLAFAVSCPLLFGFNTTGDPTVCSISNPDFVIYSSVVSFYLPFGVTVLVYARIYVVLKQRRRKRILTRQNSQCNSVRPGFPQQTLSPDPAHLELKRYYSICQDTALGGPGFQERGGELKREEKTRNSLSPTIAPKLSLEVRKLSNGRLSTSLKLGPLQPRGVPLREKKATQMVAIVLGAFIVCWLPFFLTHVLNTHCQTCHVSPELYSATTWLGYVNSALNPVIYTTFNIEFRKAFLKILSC
Sequence of D2 (P14416 whole entry): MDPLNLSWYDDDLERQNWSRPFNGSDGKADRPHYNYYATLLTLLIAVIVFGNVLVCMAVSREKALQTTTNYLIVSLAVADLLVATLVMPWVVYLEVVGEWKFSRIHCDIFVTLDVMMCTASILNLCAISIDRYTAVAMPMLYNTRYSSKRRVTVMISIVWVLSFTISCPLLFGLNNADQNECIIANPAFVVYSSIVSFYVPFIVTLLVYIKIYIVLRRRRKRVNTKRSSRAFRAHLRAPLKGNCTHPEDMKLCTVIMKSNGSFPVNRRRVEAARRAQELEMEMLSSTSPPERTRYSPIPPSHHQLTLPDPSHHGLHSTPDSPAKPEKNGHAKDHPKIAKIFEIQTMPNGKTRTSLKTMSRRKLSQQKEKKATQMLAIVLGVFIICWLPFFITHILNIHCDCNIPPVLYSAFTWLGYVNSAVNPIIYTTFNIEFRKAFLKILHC
Sequence of KOR (P41145 whole entry): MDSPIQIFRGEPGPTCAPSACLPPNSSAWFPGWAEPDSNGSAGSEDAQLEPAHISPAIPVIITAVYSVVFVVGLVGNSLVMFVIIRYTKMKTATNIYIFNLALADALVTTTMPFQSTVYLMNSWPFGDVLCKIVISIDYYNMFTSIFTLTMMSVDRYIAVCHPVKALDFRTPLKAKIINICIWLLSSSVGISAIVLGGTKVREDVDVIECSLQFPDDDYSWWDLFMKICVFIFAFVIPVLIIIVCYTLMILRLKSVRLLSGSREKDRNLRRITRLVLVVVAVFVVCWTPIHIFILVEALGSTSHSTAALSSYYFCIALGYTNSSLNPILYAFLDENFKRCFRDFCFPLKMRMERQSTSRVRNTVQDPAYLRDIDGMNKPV
Sequence of 5-HT2B (P41595 whole entry, species assumed): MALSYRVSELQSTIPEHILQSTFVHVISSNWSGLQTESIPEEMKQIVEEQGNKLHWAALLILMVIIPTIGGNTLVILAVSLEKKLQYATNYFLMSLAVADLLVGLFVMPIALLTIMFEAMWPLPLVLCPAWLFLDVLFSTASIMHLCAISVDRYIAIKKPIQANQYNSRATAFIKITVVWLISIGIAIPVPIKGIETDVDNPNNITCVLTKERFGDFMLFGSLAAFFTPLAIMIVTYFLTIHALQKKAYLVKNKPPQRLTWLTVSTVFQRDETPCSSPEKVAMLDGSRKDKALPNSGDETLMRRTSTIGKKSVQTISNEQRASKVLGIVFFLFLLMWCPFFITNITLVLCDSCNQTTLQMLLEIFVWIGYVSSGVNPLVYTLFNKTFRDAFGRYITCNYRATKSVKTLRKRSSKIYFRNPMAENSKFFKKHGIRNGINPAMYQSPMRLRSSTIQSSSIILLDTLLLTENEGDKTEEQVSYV

One may read the pKi as the Ki on a negative log10 scale, so that one unit is a factor of ten. Read a high pKi as a small Ki. The term pEC50 denotes −log10 of the EC50, conventionally taken in molar units. As for `Cc1cc(Oc2nccc3occc23)ccc1-c1c(C)c(=O)[nH]c(=O)n1C` [Compound 10, 6-(4-(Furo[3,2-c]pyridin-4-yloxy)-2-methylphenyl)-1,5-dimethylpyrimidine-2,4(1H,3H)-dione], the pKi in [1], in series [2], in series [3], in [6], in series [7] and in series [9] was less than 5.00 throughout. The pKi in series [10], in series [11], in [12], in series [13] and in series [15] was less than 5.00 each time. The “forward locomotion at each time interval and total distance traveled vs vehicle” value in series [4] was “statistically significant increases”. Moreover, the “number of contralateral rotations vs vehicle” value in series [4] is “significant increases”. Also, the BBB penetrance entry in [5] is reported as “good BBB penetrance”. In addition, in [5], the “tolerability / adverse clinical signs” value is recorded as “well-tolerated”. Moreover, the “β-arrestin2 recruitment EMAX” value in [8] was 86%. In series [8] (read-out: β-arrestin2 recruitment EC50), the pEC50 is 7.46. For the same compound, the “bias factor for β-arrestin2” value in series [14] is listed as 1.8.

Consider `Cc1cc(Oc2nccc3occc23)ccc1-c1c(C)c(=O)[nH]c(=O)n1C1CC1` [Compound 18, 1-Cyclopropyl-6-(4-(furo[3,2-c]pyridin-4-yloxy)-2-methylphenyl)-5-methylpyrimidine-2,4(1H,3H)-dione], for which the pKi in [1], in series [2], in series [6], in [7], in series [9] and in [10] was less than 5.00 each time. In addition, the negative-log Ki (pKi) in series [11], in series [12], in series [13] and in [15] was less than 5.00 throughout.

With `COc1ccnc(Oc2ccc(-c3c(C)c(=O)[nH]c(=O)n3C)c(C)c2)c1C(F)(F)F` [Compound 35, 6-(4-((4-Methoxy-3-(trifluoromethyl)pyridin-2-yl)oxy)-2-methylphenyl)-1,5-dimethylpyrimidine-2,4(1H,3H)-dione], the pKi in series [1], in series [2], in [6], in series [9], in [10] and in [11] was less than 5.00 throughout. Further, the pKi in series [12], in [13] and in series [15] was less than 5.00 each time. For the same compound, the BBB penetrance result in series [5] is “good BBB penetrance”. The “time stable levels are maintained in the brain and plasma after administration” value in series [5] is reported as “at least 4 hours”. Besides, the “tolerability / adverse clinical signs” value in series [5] is “well-tolerated”. In series [5] (sampled 0.5, 1.5, 4.0 h), the “peak concentration in the brain” value is roughly 100 µM. Besides, the “peak concentration in the plasma” value in series [5] (sampled 0.5, 1.5, 4.0 h) is roughly 100 µM.

On to `Cc1cc2c(Oc3ccc(-c4c(C)c(=O)[nH]c(=O)n4C)c(C)c3)nccc2o1` [Compound 36, 1,5-Dimethyl-6-(2-methyl-4-((2-methylfuro[3,2-c]pyridin-4-yl)-oxy)phenyl)pyrimidine-2,4(1H,3H)-dione], for which the pKi in [1], in series [2], in series [3], in series [6], in [7] and in [9] was less than 5.00 each time. Also, the pKi in [10], in [11], in series [12], in series [13] and in [15] was less than 5.00 each time.

Consider `Cc1cc(Oc2nccc3c2ccn3C)ccc1-c1c(C)c(=O)[nH]c(=O)n1C` [Compound 37, 1,5-Dimethyl-6-(2-methyl-4-((1-methyl-1H-pyrrolo[3,2-c]pyridin-4-yl)oxy)phenyl)pyrimidine-2,4(1H,3H)-dione], for which the pKi in series [1], in series [2], in series [3], in series [6], in [7] and in [9] was less than 5.00 in each case. Also, the pKi in [10], in series [11], in [12] and in series [13] was less than 5.00 in each case.

Regarding `Cc1cc(Oc2nccc3ccsc23)ccc1-c1c(C)c(=O)[nH]c(=O)n1C` [Compound 40, 1,5-Dimethyl-6-(2-methyl-4-(thieno[2,3-c]pyridin-7-yloxy)-phenyl)pyrimidine-2,4(1H,3H)-dione], the pKi in series [1], in series [2], in series [3], in [6], in series [7] and in series [9] was less than 5.00 in each case. Besides, the pKi in series [10], in [11], in series [12] and in [13] was less than 5.00 in each case.
